The values that follow come from patent US20250368651A1 (priority 2022, published 2025).

Read-outs that look alike come from different tables or passages of the source.

The target of data set [1] is von Hippel-Lindau (VHL) E3 ligase (Homo sapiens, UniProt P40337). As to conditions: cited from earlier work.
Data set [2] is described as follows: in vitro. To be noted: human.
A short description of data set [3]: in vitro. To be noted: human. This is another data set of the same source.
Data set [4] is described as follows: in vitro. As to conditions: human. The source holds these as a separate data set.
The subject of data set [5] is gene splicing. To be noted: cited from earlier work.
The test system of data set [6] is SMN2 exon 7 splicing. Nature of the data set: Cell-based SMN2 splicing assay in 293T cells (minigene). The arrangement: species or system human. To be noted: for EC50: Homo sapiens, HEK-293T.
Data set [7] concerns the target RNA Seq4 […]. Nature of the data set: FP binding assay, RNA Seq4. The procedure:
(§1) All synthetic DNA and RNA oligomers were purchased from Integrated DNA Technologies and reconstituted in nuclease-free water (Invitrogen #AM9932) at 1 mM. The concentration of the oligonucleotides at ˜0.1 mM was calibrated with the A260 value measured by a NanoDrop ND-1000 (Thermo, Waltham, MA, USA) and the predicted extinction coefficient (http://www.oligoevaluator.com) using Lamber-Beer's Law. The risdiplam analogues (1 mM in DMSO) were diluted in 2× assay buffer (40 mM HEPES, 200 mM NaCl for RNA; 40 mM HEPES, 200 mM NaCl, 1 mM MgCl2 for DNA) to make a 1 μM 2× working solution.
(§2) A 1:2 dilution series (8 points) of each oligonucleotide was prepared in 20-30 μL water to desired concentrations (i.e., 1-128 μM). 20-30 μL 2× working solution containing the 2× assay buffer and the small-molecule ligand was added to each oligonucleotide sample in 1:1 (v/v) and mixed by pipetting for 4 times. For fluorescence polarization measurement, 20 μL of the above 1× working solution was transferred into a 384-well, black, F-bottom microplates (Greiner Bio-One) in duplicates or triplicates. The plate was equilibrated at room temperature for 5 min before being read using a microplate reader (SYNERGY H1, BioTek; Excitation/Emission=360/460 nm) at 25° C. For compound SMN-C5, a competitive binding assay was employed to measure an apparent Kd. SMN-C5 was 1:2 serial diluted for 10 concentration points starting at 750 μM in DMSO. A mixture of SMN-C2 (0.5 μM) and DNA Seq6 (25 μM) in 1× assay buffer was prepared and incubated at room temperature for 10 minutes. 3 μL of SMN-C5 solution at each concentration was added to a 42 μL SMN-C2/DNA Seq6 mixture and incubated at room temperature for 10 minutes. The mixture was then transferred into a microplate (20 μL each well) in duplicates for fluorescence polarization readout. The experimental data were analyzed using Prism 8 software (Graphpad Software, San Diego, CA, USA).

Data set [8] addresses COVID RNA (SARS-CoV-2 RNA SL5 per FIG. 8). In words: FP binding, Kd for COVID RNA.
The subject of data set [9] is seq 1 (GAUGGAGAG), contains the AUG start codon. In words: FP binding assay, SARS-CoV-2 seq 1 (start codon).
The test system of data set [10] is seq 1-RC. Nature of the data set: FP binding assay, reverse complement of seq 1.
Data set [11] has as its target DNA Seq6 (UGAAGGAAGGU as deoxyribonucleotides). Nature of the data set: FP binding assay, DNA Seq6. To be noted: footnote c: FP assay for DNA Seq6; range = 95% CI; read-out: Kd. How it is done: as §1, §2
For data set [12], the system named is RNA Seq6 UGAAGGAAGGU
In words: Fluorescence polarization (FP) binding assay, RNA Seq6. How it is done:
as §1, §2
A general note: Fluorescence polarisation rises when a labelled molecule tumbles more slowly, as on binding a larger partner.

Data set [13] relates to SARS-CoV-2 SL5 RNA. Nature of the data set: Deconvolution of the RNA-binding site within SL5. As to conditions: FIG. 7D.
Data set [14] has as its system SARS-CoV-2 5′ UTR. Nature of the data set: SARS-CoV-2 5′ UTR expressing 293T cells (Gaussia luciferase cassette), RNA reduction. The class given is cell-based.
Data set [15] deals with SARS-CoV-2 minigene mRNA (5′ and 3′ UTRs, Gaussia luciferase). In words: SARS-CoV-2 minigene HEK293 cell model, RT-qPCR of viral minigene mRNA. The class given is cell-based. As to conditions: 24 hours. For orientation: In qPCR the cycle at which signal appears reflects the starting amount.
For data set [16], the system named is SMN2 gene vs forkhead box M1 (FoxM1) gene. As to conditions: cited from earlier work.
For data set [17], the target named is dsRNA Seq18 (5′ splice site of SMN2 exon 7 and U1 snRNA duplex). As to conditions: NMR chemical shift assay; cited from earlier work.
Data set [18] addresses 5′-biotinylated RNA Seq4. Nature of the data set: Surface plasmon resonance (SPR) assay, RNA Seq4. The format is binding. To be noted: footnote b: SPR assay for RNA Seq4. The procedure:
SPR experiments were performed on a Biacore T200 (GE Healthcare) instrument at 25° C. using streptavidin pre-coated SA sensor chips (GE Healthcare). The running buffer composed of 10 mM HEPES, 100 mM NaCl, 0.05% Tween 20 (w/v), 5 mM EDTA, 0.1% (v/v) DMSO at pH 6.8 was prepared freshly, filtered through the […] PVDF membrane prior to use. 5′-biotinylated RNA Seq4 was purchased from GenScript and dissolved in nuclease-free water to a concentration of 100 μM. For immobilization of the biotinylated RNA, the sensor chip was firstly conditioned with 3 consecutive 1 min injections of high salt solution (50 mM NaOH, 1M NaCl) at a flow rate of […]. Next, the biotinylated RNA was diluted 1000× in running buffer (100 nM) and applied over the streptavidin sensor chip surface at a flow rate of 10 μL/min to achieve immobilization level of about 800 RU. Finally, alkyne-PEG-biotin (50 μM in running buffer) was injected (1 min, […]) to block remaining streptavidin surface binding sites. The kinetics analysis was performed following the BiaControl Software Wizard Kinetics protocol. […] All monitored resonance signals were subtracted with signals from a non-binding reference channel. Kinetic values (Kd, ka, kd) were calculated using the BiaEvaluation Software Binding Affinity protocol with 1:1 fitting. […]

The target of data set [19] is DNA Seq6. Nature of the data set: Competitive FP binding assay (displacement of SMN-C2 from DNA Seq6). To be noted: footnote c: FP assay for DNA Seq6; competition with SMN-C2 (0.5 μM) and DNA Seq6 (25 μM); read-out: Kd (apparent, competitive FP). How it is done:
as §2

[20] abbreviates: cell-based SMN2 splicing assay in 293T cells, read-out: SMN2 EC50.

Sequence of von Hippel-Lindau (VHL) E3 ligase (P40337 54-213 limits assumed, species assumed): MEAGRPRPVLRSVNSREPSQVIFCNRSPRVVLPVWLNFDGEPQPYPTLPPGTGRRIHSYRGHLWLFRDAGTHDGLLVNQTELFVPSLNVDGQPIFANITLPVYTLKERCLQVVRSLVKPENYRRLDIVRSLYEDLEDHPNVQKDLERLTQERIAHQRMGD
Sequence of von Hippel-Lindau (VHL) E3 ligase (Q15369 17-112 partner limits assumed, species assumed): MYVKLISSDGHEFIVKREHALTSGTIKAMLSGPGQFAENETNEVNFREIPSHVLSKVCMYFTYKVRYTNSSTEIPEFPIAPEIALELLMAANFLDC
Sequence of von Hippel-Lindau (VHL) E3 ligase (Q15370 whole entry partner, species assumed): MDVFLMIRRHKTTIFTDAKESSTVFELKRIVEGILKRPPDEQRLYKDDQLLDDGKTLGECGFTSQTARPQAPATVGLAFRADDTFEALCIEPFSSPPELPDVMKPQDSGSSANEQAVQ

With `Cc1cc([C@H](C(=O)N2C[C@H](O)C[C@H]2C(=O)N[C@@H](CC(=O)N2CCC(C#Cc3ccc(C(=O)N[C@H]4C(C)(C)[C@H](Oc5ccc(C#N)c(Cl)c5)C4(C)C)cc3)CC2)c2ccccc2)C(C)C)on1` [ARD-266], the Kd entry in data set [1] was “micromolar”.

As to `CCN1CCN(c2cc(C)c3nc(-c4cc5c(C)nc(C)cn5n4)cc(=O)n3c2)CC1` [Compound C3, 2-(4,6-dimethylpyrazolo[1,5-a]pyrazin-2-yl)-7-(4-ethylpiperazin-1-yl)-9-methyl-4H-pyrido[1,2-a]pyrimidin-4-one, reference compound], the CC50 in data set [2], in [3] and in data set [4] was > 30 µM in each case. Also, the “number of genes whose splicing is significantly affected” value in data set [5] is 13 genes.

For the compound `Cc1cn2cc(-c3cc4ccc(N5CCN[C@@H](C)C5)cc4oc3=O)nc2c(C)n1` [Compound C4, (S)-3-(6,8-dimethylimidazo[1,2-a]pyrazin-2-yl)-7-(3-methylpiperazin-1-yl)-2H-chromen-2-one, reference compound], the concentration giving a half-maximal response (EC50) in [6] (Table 3, read-out: SMN2 Splicing EC50) was determined as 0.0139 ± 0.0026 µM; in data set [6] (setting [20]) it was 0.014 ± 0.003 µM. In addition, the Kd came out at 25.4 ± 7.3 µM in data set [7], 1.3 ± 0.3 µM in data set [8] (Table 3), 1.3 ± 0.3 µM in data set [8] (Table 4) and 2.9 ± 0.3 µM in [11]. Besides, the CC50 in data set [2] was > 13 µM. The “binding to seq 1” value in data set [9] is listed as “preferentially binds to seq 1”. Moreover, the “binding to seq 1-RC” value in data set [10] was “does not bind”.

As for `Cc1cn2cc(-c3cc4ccc(N5CCN(CCNC(=O)OC(C)(C)C)[C@@H](C)C5)cc4oc3=O)nc2c(C)n1` [Compound C6, (S)-tert-butyl(2-(4-(3-(6,8-dimethylimidazo[1,2-a]pyrazin-2-yl)-2-oxo-2H-chromen-7-yl)-2-methylpiperazin-1-yl)ethyl)carbamate], the EC50 in data set [6] (setting [20]) was > 8 µM. For the same compound, the “splicing modulation in cells” value in data set [6] (cellular SMN2 splicing assays) is “without showing any observable splicing modulation”. In addition, the Kd in [7] was determined as 37.5 ± 14 µM; in data set [12] (footnote d: FP assay for RNA Seq6, read-out: Kd) it was 51.2 ± 4.9 µM; in data set [8] (Table 3), 3 ± 0.4 µM; in data set [8] (Table 4), 3.03 ± 0.4 µM; in data set [11] it was 4 ± 0.3 µM. Moreover, the “reduction of binding to RNA Seq6 by the Boc group” value in data set [12] (Table 1 RNA Seq6 (SMN-C2) vs Table 2 entry 6) is ~3 fold.

For the compound `O=c1oc2cc(N3CCNCC3)ccc2cc1-c1cn2ccc(F)cc2n1` [Compound C30, 3-(7-fluoroimidazo[1,2-a]pyridin-2-yl)-7-(piperazin-1-yl)-2H-chromen-2-one], the Kd in data set [8] (Table 3) turned out to be 0.21 ± 0.04 µM; in data set [8] (Table 4) it was 0.21 ± 0.4 µM. For the same compound, the “binding site within SL5” value in data set [13] is listed as “selectively binds to the RNA structure containing the bulged G in SL5”.

With `CCOC(=O)C1=C(Nc2ccccc2)S/C(=C\c2ccc(OCCOCCn3cc(COCCOCCOCCOCCN4CCN(c5ccc6cc(-c7cn8ccc(F)cc8n7)c(=O)oc6c5)CC4)nn3)c(O)c2)C1=O` [Compound C47], in [14], the “maximum potency / activity (RNA reduction level)” value is “between those of C64 and C65”. Moreover, the “reduction of viral minigene mRNA level” value in [15] (25 μM, normalized with GAPDH) is reported as ~50%. In data set [15] (different concentrations), the “effect on RNA level (RT-qPCR)” value is “reduce the RNA level in a dose-dependent manner”.

Consider `CCc1nc(C)cn2nc(-c3cc(=O)n4cc(C5CCN(C)CC5)cc(C)c4n3)cc12` [RG-7800], for which the “sensitivity of SMN2 gene compared to FoxM1” value in [16] was ~10 times.

For `Cc1cn2cc(-c3cc(=O)n4cc(N5CCN(C)CC5)ccc4n3)cc(F)c2n1` [SMN-C5, 2-(8-fluoro-2-methylimidazo[1,2-a]pyridin-6-yl)-7-(4-methylpiperazin-1-yl)-4H-pyrido[1,2-a]pyrimidin-4-one], the Kd in data set [17] was 28 ± 9 µM; in [18], 8 µM; in data set [19] it was 5.8 ± 2.5 µM. In addition, in data set [6] (setting [20]), the EC50 came to 0.059 ± 0.009 µM.

For the compound `CC1(C)CC(Oc2ccc(-c3ccc(-c4cn[nH]c4)cc3O)nn2)CC(C)(C)N1` [branaplam], the “number of genes whose splicing is significantly affected” value in data set [5] was 36 genes.

The term EC50 denotes the concentration giving half of the maximal effect.
